From ChEMBL document CHEMBL3108675, “Structure, absolute configuration, and antidiarrheal activity of a thymol derivative from Ageratina cylindrica” (J Nat Prod, 2014)
pIC50: −log10 of the molar value. Counter-ions that a name gives are not always drawn.

Experiments:
[1] = system: Giardia intestinalis; assay: Antiprotozoal activity against Giardia lamblia IMSS:1090:1; format: functional, organism-based; conditions: Giardia duodenalis
[2] = system: Entamoeba histolytica; assay: Antiprotozoal activity against Entamoeba histolytica HM-1:IMSS; format: functional, organism-based
[3] = species: Rattus norvegicus; assay: Antidiarrheal activity in rat assessed as inhibition of charcoal-gum acacia-induced hyperperistalsis; format: functional; conditions: read-out: ID50 (the source's name)

| SMILES | pIC50 [1] | pIC50 [2] | ED50 [3] |
| --- | --- | --- | --- |
| CC(C)C(=O)Oc1cc(C=O)c(O)cc1[C@@]1(COC(=O)c2ccccc2)CO1 | 3.78 | 3.73 | 0.85 µmol/kg |
| Oc1cc(O)c2c(c1)OC(c1ccc(O)c(O)c1)C(O)C2 (stereo not drawn) [CATECHIN] | 3.93 | 3.65 | – |
| CC[C@H]1CN2CCc3cc(OC)c(OC)cc3[C@@H]2C[C@@H]1C[C@H]1NCCc2cc(OC)c(OC)cc21 [EMETINE] | 6.08 | – | – |
| CN(C)C(=O)C(CCN1CCC(O)(c2ccc(Cl)cc2)CC1)(c1ccccc1)c1ccccc1 [LOPERAMIDE HYDROCHLORIDE] | – | – | 0.2 µmol/kg |
| Cc1ncc([N+](=O)[O-])n1CCO [METRONIDAZOLE] | – | 6.64 | – |
